Key:
[1] = molecular target: T1, system Xc^− (Homo sapiens, UniProt Q9UPY5); assay: Cystine-induced glutamate release assay; type: cell-based; set-up: endogenous in cells; host or cells: H4 cells; conditions: H4 cells, sodium-free HEPES buffer, 50 μM L-Cystine, 2 hours, Amplex Red glutamate readout; read-out: pIC50 Cystine-induced glutamate release assay (converted)
T1 sequence (Q9UPY5 1-501): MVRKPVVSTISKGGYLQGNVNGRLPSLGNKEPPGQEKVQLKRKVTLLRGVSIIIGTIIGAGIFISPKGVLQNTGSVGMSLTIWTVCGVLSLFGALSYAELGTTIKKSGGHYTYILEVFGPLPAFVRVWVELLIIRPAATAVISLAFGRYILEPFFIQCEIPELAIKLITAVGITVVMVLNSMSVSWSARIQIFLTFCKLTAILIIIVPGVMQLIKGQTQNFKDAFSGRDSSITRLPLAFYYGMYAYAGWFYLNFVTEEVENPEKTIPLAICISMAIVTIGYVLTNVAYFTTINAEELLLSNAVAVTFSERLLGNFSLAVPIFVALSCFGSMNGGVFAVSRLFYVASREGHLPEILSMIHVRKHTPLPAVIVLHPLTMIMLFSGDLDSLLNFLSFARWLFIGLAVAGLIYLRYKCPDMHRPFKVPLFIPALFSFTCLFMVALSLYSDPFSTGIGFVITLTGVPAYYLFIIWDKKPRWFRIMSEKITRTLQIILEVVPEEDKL
T1 sequence (P08195 1-529 partner): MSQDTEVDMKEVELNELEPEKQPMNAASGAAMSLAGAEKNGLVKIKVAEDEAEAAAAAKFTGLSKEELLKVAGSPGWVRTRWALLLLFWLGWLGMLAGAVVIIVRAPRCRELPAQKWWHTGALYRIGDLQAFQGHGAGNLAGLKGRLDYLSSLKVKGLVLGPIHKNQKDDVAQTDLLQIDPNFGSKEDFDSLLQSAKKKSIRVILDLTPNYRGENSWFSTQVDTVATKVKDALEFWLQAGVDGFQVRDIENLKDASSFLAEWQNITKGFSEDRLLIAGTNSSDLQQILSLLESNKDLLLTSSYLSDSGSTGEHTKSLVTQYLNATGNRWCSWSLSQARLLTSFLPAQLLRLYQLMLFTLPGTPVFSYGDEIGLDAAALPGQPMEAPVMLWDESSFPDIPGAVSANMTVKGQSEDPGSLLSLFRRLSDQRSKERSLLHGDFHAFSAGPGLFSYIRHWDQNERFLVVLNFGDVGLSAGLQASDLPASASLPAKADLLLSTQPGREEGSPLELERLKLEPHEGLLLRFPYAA
Procedure, shortened: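 H4 cells in sodium-free HEPES buffer (pH 7.4), 2 days after plating; glutamate release induced with 50 μM L-cystine plus compound (1% DMSO), 2 h at 37 °C. Supernatant glutamate measured by Amplex Red fluorescence; IC50/pIC50 derived between 1% DMSO and 50 μM erastin controls.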

[2] = molecular target: T1, system Xc^−; assay: [^14C]L-Cystine uptake assay; type: cell-based; set-up: endogenous in cells; host or cells: H4 cells; conditions: H4 cells, sodium-free HEPES buffer, 0.5 μM L-[14C]Cystine and 4.5 μM L-Cystine, 1 hour at 37° C.; read-out: pIC50 [^14C] L-Cystine uptake assay (converted)
Procedure, shortened: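 H4 cells at 5×10^4 cells/well in sodium-free HEPES buffer were preincubated 15 min with compounds (1% DMSO). Uptake of 0.5 μM [14C]L-cystine plus 4.5 μM unlabelled L-cystine ran 1 hour at 37° C on scintillating plates. IC50 was set between 1% DMSO and 50 μM Erastin controls and expressed as pIC50.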

| Compound | IC50 [1] [nM] | IC50 [2] [nM] |
| --- | --- | --- |
| CC1C(=O)N(CC(=O)Nc2ccc(Cl)c(F)c2)c2cc(CN3CC(C)(O)C3)ccc2-c2cccnc21 (centres unmarked) [#343, N-(4-chloro-3-fluoro-phenyl)-2-[9-[(3-hydroxy-3-methyl-azetidin-1-yl)methyl]-5-methyl-6-oxo-5H-pyrido[2,3d][1]benzazepin-7-yl]acetamide] | 39.8 to 100 | 100 to 501 |
| CC1C(=O)N(CC(=O)Nc2ccc(Cl)c(F)c2)c2cc(CN3CC(F)(F)C3)ccc2-c2cccnc21 (centres unmarked) [#344, N-(4-chloro-3-fluoro-phenyl)-2-[9-[(3,3-difluoroazetidin-1-yl)methyl]-5-methyl-6-oxo-5H-pyrido[2,3-d][1]benzazepin-7-yl]acetamide] | 39.8 to 100 | 100 to 501 |
| CC1C(=O)N(CC(=O)Nc2ccc(Cl)c(F)c2)c2cc(C3CN(CC(F)F)C3)cc(F)c2-c2cccnc21 (centres unmarked) [#345, N-(4-chloro-3-fluoro-phenyl)-2-[9-[1-(2,2-difluoroethyl)azetidin-3-yl]-11-fluoro-5-methyl-6-oxo-5H-pyrido[2,3-d][1]benzazepin-7-yl]acetamide] | 15.8 to 39.8 | 15.8 to 39.8 |
| CC1C(=O)N(CC(=O)Nc2ccc(C(F)F)cc2)c2cc(C3CC3C(F)(F)F)cc(F)c2-c2cccnc21 (centres unmarked) [#346, N-[4-(difluoromethyl)phenyl]-2-[11-fluoro-5-methyl-6-oxo-9-[2-(trifluoromethyl)cyclopropyl]-5H-pyrido[2,3-d][1]benzazepin-7-yl]acetamide] | 39.8 to 100 | 39.8 to 100 |
| CC1C(=O)N(CC(=O)Nc2ccc(C(F)F)cc2)c2cc(C3CC3)nc(Cl)c2-c2cccnc21 (centres unmarked) [#347, 2-(3-chloro-5-cyclopropyl-10-methyl-9-oxo-4,8,12-triazatricyclo[9.4.0.0^2,7]pentadeca-1(15),2,4,6,11,13-hexaen-8-yl)-N-[4-(difluoromethyl)phenyl]acetamide] | 39.8 to 100 | 15.8 to 39.8 |
| CCn1c2c(cc(C)c1=O)N(CC(=O)Nc1ccc(Cl)c(F)c1)C(=O)C(C)c1ccccc1-2 (centres unmarked) [#349, N-(4-chloro-3-fluoro-phenyl)-2-(1-ethyl-3,7-dimethyl-2,6-dioxo-7H-pyrido[3,2-d][3]benzazepin-5-yl)acetamide] | 15.8 to 39.8 | < 15.8 |
| Cc1cc2c(n(C)c1=O)-c1ccccc1CC(=O)N2CC(=O)Nc1ccc(Cl)c(F)c1 [#350, N-(4-chloro-3-fluoro-phenyl)-2-(1,3-dimethyl-2,6-dioxo-7H-pyrido[3,2-d][3]benzazepin-5-yl)acetamide] | 15.8 to 39.8 | 15.8 to 39.8 |
| CC1C(=O)N(CC(=O)Nc2ccc(Cl)c(F)c2)c2ccn(C)c(=O)c2-c2ccccc21 (centres unmarked) [#351, N-(4-chloro-3-fluoro-phenyl)-2-(2,7-dimethyl-1,6-dioxo-7H-pyrido[4,3-d][3]benzazepin-5-yl)acetamide] | 39.8 to 100 | 39.8 to 100 |
| Cc1cc2c(c(=O)n1C)-c1ccc(Cl)cc1C(C)C(=O)N2CC(=O)Nc1ccc(Cl)c(F)c1 (centres unmarked) [#352, N-(4-chloro-3-fluoro-phenyl)-2-(9-chloro-2,3,7-trimethyl-1,6-dioxo-7H-pyrido[4,3-d][3]benzazepin-5-yl)acetamide] | 15.8 to 39.8 | < 15.8 |
| Cc1cc2c(n(C)c1=O)-c1ccnn1C(C)C(=O)N2CC(=O)Nc1ccc(Cl)c(F)c1 (centres unmarked) [#353, N-(4-chloro-3-fluoro-phenyl)-2-(7,12,14-trimethyl-8,13-dioxo-5,6,9,14-tetrazatricyclo[8.4.0.0^2,6]tetradeca-1(10),2,4,11-tetraen-9-yl)acetamide] | 15.8 to 39.8 | 39.8 to 100 |
| Cc1cc2c(n(C)c1=O)-c1ccc(F)cc1C(C)C(=O)N2CC(=O)Nc1ccc(Cl)c(F)c1 (centres unmarked) [#354, N-(4-chloro-3-fluoro-phenyl)-2-(9-fluoro-1,3,7-trimethyl-2,6-dioxo-7H-pyrido[3,2-d][3]benzazepin-5-yl)acetamide] | 15.8 to 39.8 | < 15.8 |
| Cc1c2c(cc(=O)n1C)N(CC(=O)Nc1ccc(Cl)c(F)c1)C(=O)C(C)c1ccccc1-2 (centres unmarked) [#355, N-(4-chloro-3-fluoro-phenyl)-2-(1,2,7-trimethyl-3,6-dioxo-7H-pyrido[3,4-a][3]benzazepin-5-yl)acetamide] | 15.8 to 39.8 | 39.8 to 100 |

Now from value to molecule:

| IC50 [1] [nM] | IC50 [2] [nM] | Compound |
| --- | --- | --- |
| 39.8 to 100 | 39.8 to 100 | Cc1cc2c(c(F)n1)-c1ccn(C)c(=O)c1C(C)C(=O)N2CC(=O)Nc1ccc(Cl)c(F)c1 (centres unmarked) [#356, N-(4-chloro-3-fluoro-phenyl)-2-(3-fluoro-5,10,13-trimethyl-9,12-dioxo-4,8,13-triazatricyclo[9.4.0.0^2,7]pentadeca-1(11),2,4,6,14-pentaen-8-yl)acetamide] |
| 15.8 to 39.8 | < 15.8 | Cc1cc2c(c(=O)n1C)-c1sccc1C(C)C(=O)N2CC(=O)Nc1ccc(C(F)F)cc1 (centres unmarked) [#361, N-[4-(difluoromethyl)phenyl]-2-(7,12,13-trimethyl-8,14-dioxo-3-thia-9,13-diazatricyclo[8.4.0.0^2,6]tetradeca-1(10),2(6),4,11-tetraen-9-yl)acetamide] |
| 15.8 to 39.8 | < 15.8 | COc1cc2c(c(=O)n1C)-c1ccccc1C(C)C(=O)N2CC(=O)Nc1ccc(C(F)F)cc1 (centres unmarked) [#362, N-[4-(difluoromethyl)phenyl]-2-(3-methoxy-2,7-dimethyl-1,6-dioxo-7H-pyrido[4,3-d][3]benzazepin-5-yl)acetamide] |
| 15.8 to 39.8 | 39.8 to 100 | CC1C(=O)N(CC(=O)Nc2ccc(Cl)c(F)c2)c2cc(CO)c(=O)n(C)c2-c2ccccc21 (centres unmarked) [#363, N-(4-chloro-3-fluoro-phenyl)-2-[3-(hydroxymethyl)-1,7-dimethyl-2,6-dioxo-7H-pyrido[3,2-d][3]benzazepin-5-yl]acetamide] |
| 39.8 to 100 | 39.8 to 100 | CC1C(=O)N(CC(=O)Nc2ccc(Cl)c(F)c2)c2ccn(C(F)F)c(=O)c2-c2cccnc21 (centres unmarked) [#366, N-(4-chloro-3-fluoro-phenyl)-2-[4-(difluoromethyl)-10-methyl-3,9-dioxo-4,8,12-triazatricyclo[9.4.0.0^2,7]pentadeca-1(15),2(7),5,11,13-pentaen-8-yl]acetamide] |
| 39.8 to 100 | 39.8 to 100 | Cc1cc(F)c2c(c1)N(CC(=O)Nc1ccc(C(F)F)cc1)C(=O)C(C)c1ncncc1-2 (centres unmarked) [#370, N-[4-(difluoromethyl)phenyl]-2-(11-fluoro-5,9-dimethyl-6-oxo-5H-pyrimido[4,5-d][1]benzazepin-7-yl)acetamide] |
| < 15.8 | < 15.8 | Cc1cc2c(c(OCCO)n1)-c1cccnc1[C@@H](C)C(=O)N2CC(=O)Nc1ccc(C(F)F)cc1 [#374, N-[4-(difluoromethyl)phenyl]-2-[(10R)-3-(2-hydroxyethoxy)-5,10-dimethyl-9-oxo-4,8,12-triazatricyclo[9.4.0.0^2,7]pentadeca-1(11),2(7),3,5,12,14-hexaen-8-yl]acetamide] |
| < 15.8 | < 15.8 | CC1C(=O)N(CC(=O)Nc2ccc(Cl)c(F)c2)c2cc(OCCO)nc(F)c2-c2cccnc21 (centres unmarked) [#375, N-(4-chloro-3-fluoro-phenyl)-2-[3-fluoro-5-(2-hydroxyethoxy)-10-methyl-9-oxo-4,8,12-triazatricyclo[9.4.0.0^2,7]pentadeca-1(15),2,4,6,11,13-hexaen-8-yl]acetamide] |
| 15.8 to 39.8 | 39.8 to 100 | CC1C(=O)N(CC(=O)Nc2ccc(Cl)c(F)c2)c2cc(F)nc(OCCO)c2-c2cccnc21 (centres unmarked) [#376, N-(4-chloro-3-fluoro-phenyl)-2-[5-fluoro-3-(2-hydroxyethoxy)-10-methyl-9-oxo-4.8,12-triazatricyclo[9.4.0.0^2,7]pentadeca-1(15),2,4,6,11,13-hexaen-8-yl]acetamide] |
| 15.8 to 39.8 | 39.8 to 100 | CC1C(=O)N(CC(=O)Nc2ccc(C(F)F)cc2)c2cc(OC3CN(C)C3)nc(F)c2-c2cccnc21 (centres unmarked) [#378, N-[4-(difluoromethyl)phenyl]-2-[3-fluoro-10-methyl-5-(1-methylazetidin-3-yl)oxy-9-oxo-4,8,12-triazatricyclo[9.4.0.0^2,7]pentadeca-1(15),2,4,6,11,13-hexaen-8-yl]acetamide] |

— patent US20260217708A1, “FUSED BENZAZEPINE DERIVATIVES FOR USE IN THE TREATMENT OF CANCER AND EPILEPSY” (UCB BIOPHARMA SRL, priority 2023, published 2026)
